{"source": "ChEMBL document CHEMBL4425188", "about": "“Synthesis and immunostimulatory activity of substituted TLR7 agonists” (Bioorg Med Chem Lett, 2016)", "key": {"[1]": {"target": "T1, Toll-like receptor 7 (Homo sapiens) (UniProt Q9NYK1)", "T1 sequence (whole entry)": "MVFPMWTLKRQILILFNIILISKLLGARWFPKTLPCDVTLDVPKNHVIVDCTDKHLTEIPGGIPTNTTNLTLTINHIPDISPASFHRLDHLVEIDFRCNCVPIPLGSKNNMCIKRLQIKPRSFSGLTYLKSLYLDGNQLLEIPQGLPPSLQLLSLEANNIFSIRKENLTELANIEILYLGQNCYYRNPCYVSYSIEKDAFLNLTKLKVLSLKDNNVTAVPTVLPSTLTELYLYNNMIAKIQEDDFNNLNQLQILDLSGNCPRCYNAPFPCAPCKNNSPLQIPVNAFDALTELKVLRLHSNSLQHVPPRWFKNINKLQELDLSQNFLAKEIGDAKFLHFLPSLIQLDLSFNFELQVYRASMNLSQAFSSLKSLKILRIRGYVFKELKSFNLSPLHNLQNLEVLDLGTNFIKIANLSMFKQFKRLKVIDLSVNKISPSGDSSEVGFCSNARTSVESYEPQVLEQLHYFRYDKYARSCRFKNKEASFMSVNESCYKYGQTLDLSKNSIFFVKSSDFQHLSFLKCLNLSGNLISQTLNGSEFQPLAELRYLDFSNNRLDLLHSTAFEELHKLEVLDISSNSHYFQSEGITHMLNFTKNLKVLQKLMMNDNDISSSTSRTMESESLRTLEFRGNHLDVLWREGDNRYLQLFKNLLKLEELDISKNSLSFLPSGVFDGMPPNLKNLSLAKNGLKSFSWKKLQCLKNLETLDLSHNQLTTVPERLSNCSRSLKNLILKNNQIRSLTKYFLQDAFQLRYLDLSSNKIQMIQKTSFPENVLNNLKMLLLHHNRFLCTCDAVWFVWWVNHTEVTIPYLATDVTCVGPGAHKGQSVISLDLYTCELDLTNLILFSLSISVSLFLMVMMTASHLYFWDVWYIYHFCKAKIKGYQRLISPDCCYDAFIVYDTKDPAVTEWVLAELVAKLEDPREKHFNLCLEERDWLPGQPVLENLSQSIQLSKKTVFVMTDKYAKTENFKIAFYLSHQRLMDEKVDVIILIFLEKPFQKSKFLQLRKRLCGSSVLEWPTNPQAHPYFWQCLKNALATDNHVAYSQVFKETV", "experiment": "Agonist activity at human TLR7 expressed in HEK293 cells at <= 500 ng/ml by QUANTI-blue SEAP reporter gene assay", "assay_type": "cell-based"}, "[2]": {"target": "T2, Toll-like receptor 8 (Homo sapiens) (UniProt Q9NR97)", "T2 sequence (whole entry)": "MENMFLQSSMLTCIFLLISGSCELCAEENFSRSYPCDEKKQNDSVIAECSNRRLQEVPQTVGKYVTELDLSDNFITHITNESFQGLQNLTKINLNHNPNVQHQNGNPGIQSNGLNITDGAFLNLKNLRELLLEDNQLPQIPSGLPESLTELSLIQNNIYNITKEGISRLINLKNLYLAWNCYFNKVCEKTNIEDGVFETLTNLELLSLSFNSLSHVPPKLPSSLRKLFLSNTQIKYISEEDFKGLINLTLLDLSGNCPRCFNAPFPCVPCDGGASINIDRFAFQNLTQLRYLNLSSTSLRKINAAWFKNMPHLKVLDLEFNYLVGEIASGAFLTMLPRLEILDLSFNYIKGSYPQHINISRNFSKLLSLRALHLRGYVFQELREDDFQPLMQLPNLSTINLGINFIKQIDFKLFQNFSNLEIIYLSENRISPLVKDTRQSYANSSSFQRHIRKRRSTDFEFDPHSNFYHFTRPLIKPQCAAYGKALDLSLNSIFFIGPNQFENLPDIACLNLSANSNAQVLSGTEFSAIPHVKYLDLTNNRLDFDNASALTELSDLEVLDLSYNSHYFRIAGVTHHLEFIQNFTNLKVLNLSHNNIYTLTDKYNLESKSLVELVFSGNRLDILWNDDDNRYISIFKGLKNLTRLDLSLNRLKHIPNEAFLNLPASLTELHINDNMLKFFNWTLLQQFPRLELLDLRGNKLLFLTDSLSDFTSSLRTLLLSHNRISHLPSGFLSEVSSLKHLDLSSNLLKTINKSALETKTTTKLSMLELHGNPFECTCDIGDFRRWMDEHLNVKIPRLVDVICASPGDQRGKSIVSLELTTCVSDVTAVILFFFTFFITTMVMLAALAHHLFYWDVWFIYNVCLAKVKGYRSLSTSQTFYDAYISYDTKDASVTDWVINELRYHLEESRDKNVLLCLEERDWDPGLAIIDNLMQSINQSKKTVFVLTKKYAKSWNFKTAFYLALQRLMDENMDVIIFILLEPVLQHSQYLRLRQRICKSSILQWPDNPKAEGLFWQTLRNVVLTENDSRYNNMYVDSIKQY", "experiment": "Agonist activity at human TLR8 expressed in HEK293 cells at 5 to 1000 ng/ml by QUANTI-blue SEAP reporter gene assay", "assay_type": "cell-based"}, "[3]": {"target": "T3, Toll-like receptor 9 (Homo sapiens) (UniProt Q9NR96)", "T3 sequence (whole entry)": "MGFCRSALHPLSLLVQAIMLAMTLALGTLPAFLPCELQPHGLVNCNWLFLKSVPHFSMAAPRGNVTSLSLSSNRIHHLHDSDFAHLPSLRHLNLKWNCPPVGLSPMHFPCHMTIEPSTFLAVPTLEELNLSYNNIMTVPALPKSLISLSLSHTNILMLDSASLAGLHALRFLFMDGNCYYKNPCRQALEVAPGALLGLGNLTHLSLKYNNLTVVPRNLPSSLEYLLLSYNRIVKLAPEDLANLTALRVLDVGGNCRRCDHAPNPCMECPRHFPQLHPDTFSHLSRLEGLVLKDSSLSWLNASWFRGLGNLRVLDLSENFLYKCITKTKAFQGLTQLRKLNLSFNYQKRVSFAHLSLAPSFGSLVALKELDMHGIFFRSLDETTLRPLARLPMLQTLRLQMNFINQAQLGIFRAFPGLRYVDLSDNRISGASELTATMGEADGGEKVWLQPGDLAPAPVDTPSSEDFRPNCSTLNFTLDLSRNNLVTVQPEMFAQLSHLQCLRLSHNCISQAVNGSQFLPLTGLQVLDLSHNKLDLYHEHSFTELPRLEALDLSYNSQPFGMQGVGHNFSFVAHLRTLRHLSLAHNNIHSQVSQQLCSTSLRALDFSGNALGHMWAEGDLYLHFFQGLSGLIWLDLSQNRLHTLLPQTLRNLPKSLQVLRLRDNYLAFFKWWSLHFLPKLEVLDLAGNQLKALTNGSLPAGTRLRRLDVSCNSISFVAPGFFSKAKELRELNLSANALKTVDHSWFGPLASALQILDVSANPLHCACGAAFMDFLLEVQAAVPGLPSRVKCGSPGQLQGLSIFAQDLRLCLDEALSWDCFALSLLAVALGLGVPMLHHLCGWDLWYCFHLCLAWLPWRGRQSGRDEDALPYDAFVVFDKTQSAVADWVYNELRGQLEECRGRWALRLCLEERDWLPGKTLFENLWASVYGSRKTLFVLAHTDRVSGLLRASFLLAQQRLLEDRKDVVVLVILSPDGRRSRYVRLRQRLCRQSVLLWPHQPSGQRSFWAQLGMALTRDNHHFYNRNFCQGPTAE", "experiment": "Agonist activity at human TLR9 expressed in HEK293 cells at 5 to 1000 ng/ml by QUANTI-blue SEAP reporter gene assay", "assay_type": "cell-based"}, "T-cell": {"tested_on": "T-cell", "experiment": "Immunostimulatory activity in CFSE-labeled human T cells assessed as TLR7 agonist-induced cell proliferation at 2 to 200 nM after 6 days by FACS analysis", "assay_type": "functional, cell-based"}, "B cell": {"tested_on": "B cell", "experiment": "Immunostimulatory activity in CFSE-labeled human B cells assessed as TLR7 agonist-induced cell proliferation after 6 days by FACS analysis", "assay_type": "functional, cell-based", "details": "144 h"}, "Homo sapiens": {"organism": "Homo sapiens", "experiment": "Immunostimulatory activity in CFSE-labeled human NK cells assessed as TLR7 agonist-induced cell proliferation at 2 to 200 nM after 6 days by FACS analysis", "assay_type": "functional"}, "HEK293": {"tested_on": "HEK293", "experiment": "Induction of SEAP reporter gene expression in TLR-deficient HEK293 cells at 5 to 1000 ng/ml", "assay_type": "functional, cell-based", "details": "Homo sapiens"}}, "note": "Active and inactive are the calls of the source. No cut-off for these calls is given here."}
{"smiles": "CCCCOc1nc(N)c2nc(O)n(Cc3ccc(C(=O)NCc4ccc(OC)cc4)cc3)c2n1", "values": [{"measurement": "Activity", "setting": "[1]", "result": "Active"}, {"measurement": "Activity", "setting": "[2]", "result": "inactive"}, {"measurement": "Activity", "setting": "[3]", "result": "inactive"}, {"measurement": "Activity", "setting": "T-cell", "result": "inactive"}, {"measurement": "EC50", "setting": "B cell", "result": 60.5, "unit": "nM"}, {"measurement": "Activity", "setting": "Homo sapiens", "result": "inactive"}, {"measurement": "Activity", "setting": "HEK293", "result": "inactive"}]}
{"smiles": "CCCCOc1nc(N)c2nc(O)n(Cc3ccc(C(=O)NCCOCCOCCNC(=O)OC(C)(C)C)cc3)c2n1", "values": [{"measurement": "Activity", "setting": "[1]", "result": "Active"}, {"measurement": "Activity", "setting": "[2]", "result": "inactive"}, {"measurement": "Activity", "setting": "[3]", "result": "inactive"}, {"measurement": "Activity", "setting": "T-cell", "result": "inactive"}, {"measurement": "EC50", "setting": "B cell", "result": 46.4, "unit": "nM"}, {"measurement": "Activity", "setting": "Homo sapiens", "result": "inactive"}, {"measurement": "Activity", "setting": "HEK293", "result": "inactive"}]}
{"smiles": "CCCCOc1nc(N)c2nc(NC)n(Cc3ccccc3)c2n1", "values": [{"measurement": "Activity", "setting": "[1]", "result": "Active"}, {"measurement": "Activity", "setting": "[2]", "result": "inactive"}, {"measurement": "Activity", "setting": "[3]", "result": "inactive"}, {"measurement": "Activity", "setting": "T-cell", "result": "inactive"}, {"measurement": "EC50", "setting": "B cell", "result": 969, "unit": "nM"}, {"measurement": "Activity", "setting": "Homo sapiens", "result": "inactive"}, {"measurement": "Activity", "setting": "HEK293", "result": "inactive"}]}
{"smiles": "CCCCOc1nc(N)c2nc(O)n(Cc3ccc(C(=O)NCCNC(=O)C4CCC(CN5C(=O)C=CC5=O)CC4)cc3)c2n1", "note": "(centres undefined)", "values": [{"measurement": "Activity", "setting": "[1]", "result": "Active"}, {"measurement": "Activity", "setting": "[2]", "result": "inactive"}, {"measurement": "Activity", "setting": "[3]", "result": "inactive"}, {"measurement": "Activity", "setting": "HEK293", "result": "inactive"}]}
{"smiles": "CCCCOc1nc(N)c2nc(O)n(Cc3ccc(C(=O)NCCC(=O)N4Cc5ccccc5C#Cc5ccccc54)cc3)c2n1", "values": [{"measurement": "Activity", "setting": "[1]", "result": "Active"}, {"measurement": "Activity", "setting": "[2]", "result": "inactive"}, {"measurement": "Activity", "setting": "[3]", "result": "inactive"}, {"measurement": "Activity", "setting": "HEK293", "result": "inactive"}]}
